Key:
Type in all cases: biochemical
ST6Gal-I = target: T1, ST6Gal-I (Rattus norvegicus, UniProt P13721); assay: CMP-NeuAc / UMP-NeuAc formed by reverse sialylation as sialyl donor, ST6Gal-I activity; settings: acceptor 2.5 mM Galβ1,4GlcNAcβ-O-Bn; donor [3] 0.0625 mM, 8 mM 5′-CMP or 5′-UMP, ST3Gal-II plus ST6GalI, 4 h
T1 construct: purchased Calbiochem
T1 sequence (P13721 1-403): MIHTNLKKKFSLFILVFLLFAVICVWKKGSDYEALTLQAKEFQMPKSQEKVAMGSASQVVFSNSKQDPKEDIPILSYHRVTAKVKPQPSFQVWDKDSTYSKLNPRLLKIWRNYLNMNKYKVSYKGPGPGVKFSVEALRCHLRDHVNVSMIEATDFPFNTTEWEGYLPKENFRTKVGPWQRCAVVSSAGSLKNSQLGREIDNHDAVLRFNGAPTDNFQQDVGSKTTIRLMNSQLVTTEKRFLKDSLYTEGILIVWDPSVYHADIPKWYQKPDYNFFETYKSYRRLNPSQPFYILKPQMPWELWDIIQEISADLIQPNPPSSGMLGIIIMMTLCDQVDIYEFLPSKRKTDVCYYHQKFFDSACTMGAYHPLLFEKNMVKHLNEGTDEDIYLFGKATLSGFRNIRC

ST3Gal-III = target: T2, ST3Gal-III (Rattus norvegicus, UniProt Q02734); assay: CMP-NeuAc / UMP-NeuAc formed by reverse sialylation as sialyl donor, ST3Gal-III activity; settings: acceptor 2.5 mM 4-O-MeGalβ1,4GlcNAcβ-O-Bn; donor [3] 0.0625 mM, 8 mM 5′-CMP or 5′-UMP, ST3Gal-II plus ST3Gal-III, 4 h
T2 construct: purchased Calbiochem
T2 sequence (Q02734 1-374): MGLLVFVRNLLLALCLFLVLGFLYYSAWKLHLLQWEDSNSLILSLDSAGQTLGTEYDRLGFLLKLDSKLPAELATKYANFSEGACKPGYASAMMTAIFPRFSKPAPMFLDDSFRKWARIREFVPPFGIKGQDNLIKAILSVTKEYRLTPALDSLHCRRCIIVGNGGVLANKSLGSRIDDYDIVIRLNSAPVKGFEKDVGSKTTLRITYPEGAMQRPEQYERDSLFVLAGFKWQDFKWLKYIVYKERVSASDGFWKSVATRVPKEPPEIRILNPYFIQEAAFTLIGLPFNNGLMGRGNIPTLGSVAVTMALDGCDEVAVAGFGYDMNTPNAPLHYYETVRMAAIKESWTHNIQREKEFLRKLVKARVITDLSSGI

ST3Gal-II [1] = target: T3, ST3Gal-II (Rattus norvegicus, UniProt Q11205); assay: CMP-NeuAc / UMP-NeuAc formed by reverse sialylation as sialyl donor, ST3Gal-II activity; settings: acceptor 2.5 mM D-Fucβ1,3GalNAcα-O-Bn; donor [3] 0.0625 mM, 8 mM 5′-CMP or 5′-UMP, 4 h, blank subtracted
T3 construct: purchased Calbiochem
T3 sequence (Q11205 1-350): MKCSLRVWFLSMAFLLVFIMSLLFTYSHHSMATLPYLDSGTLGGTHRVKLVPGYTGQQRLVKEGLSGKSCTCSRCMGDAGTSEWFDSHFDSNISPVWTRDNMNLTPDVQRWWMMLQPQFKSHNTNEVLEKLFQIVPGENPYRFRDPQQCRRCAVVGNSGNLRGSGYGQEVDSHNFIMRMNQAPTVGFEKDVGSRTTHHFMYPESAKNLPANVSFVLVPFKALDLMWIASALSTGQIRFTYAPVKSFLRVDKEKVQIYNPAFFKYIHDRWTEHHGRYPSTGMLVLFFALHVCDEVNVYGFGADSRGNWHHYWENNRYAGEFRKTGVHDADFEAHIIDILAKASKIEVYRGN

ST3Gal-II [2] = target: T3, ST3Gal-II; assay: Serial transfer of sialic acid from donor via 5′-CMP to acceptors (scheme-II); settings: 0.15 mM donor; 2 mM 5′-CMP with core-2 donors
Description: FIG. 3. Serial transfer of sialic acid using scheme-II was followed at increasing concentrations of acceptor D-Fucβ1,3GalNAcα-O-Bn. The donor used was either: i) 0.15 mM [9-^3H]CMP-NeuAc; or, ii) 0.15 mM [9-^3H]NeuAcα2,3Galβ1,3(4-FGlcNAcβ1,6)GalNAcα-O-Bn [9-^3H [2]] in the presence of 2.0 mM 5′-CMP, or iii) [9-^3H]NeuAcα2,3Galβ1,3(6-O-SulfoGlcNAcβ1,6)GalNAcα-O—Al [[9-^3H] [4]] in the presence of 2.0 mM 5′-CMP. In runs where [9-^3H [2]] was donor since both and [2] bind C18 cartridges, control runs were performed in the absence of D-Fucβ1,3GalNAcα-O-Bn to estimate the amount of [9-^3H]CMP-NeuAc formed under the experimental conditions. 80-85% of the radioactivity was transferred to CMP-NeuAc in these runs. The amount of CMP-NeuAc remaining in runs with was then subtracted from CMP-NeuAc radioactivity in the control run to determine the amount of sialylated. To complement this run, studies were also performed with [[9-^3H] […] In these runs, the amount of sialylated was determined by measuring radioactivity retained in the C18-cartridge. a. Equilibrium constant was 5.55 when CMP-[9-^3H]NeuAc was donor. b. ˜10-fold lower acceptor concentration was required for similar extents of reaction when CMP-[9-^3H]NeuAc was donor, compared to core-2 based donors and [4].
We tested the possibility that CMP-NeuAc formed above may be available for transfer to other acceptors using ST3Gal-II (scheme-II, FIG. 3). For this, three radiolabeled donors were prepared using methods described above: two were based on the mucin Core-2 structure ([[9-^3H] [1]] and [9-^3H]NeuAcα2,3Galβ1,3(6-O-SulfoGlcNAcβ1,6)GalNAcα-O—Al [[9-^3H] [4]]) while the third was based on the Globo glycolipid ([9-^3H] [3]). The transfer of [9-^3H]NeuAc from these sialylated donors to various T-hapten (Galβ1,3GalNAcα) and mucin core2-based glycoside acceptors in the presence of 5′-CMP and ST3Gal-II was assessed (Table III). All three […] of ST3Gal-II ([1], [3] and [4]) allowed formation of CMP-[9-^3H]NeuAc, and a diverse array of products.
The transfer of [9-^3H]NeuAc from [[9-^3H][1]] to D-Fucβ1,3GalNAcα-O-Bn in the presence of 5′-CMP and ST3Gal-II increased linearly in the first two hours and it reached saturation at 4 hours (FIG. 12), and thus the data in Table III (4 hours time point) represent equilibrium conditions. […] Further, diverse sialylated products can be formed using the same synthetic sialylated donor.
In order to compare the efficiency of individual reactions of scheme II, independent runs were performed where either 0.15 mM [9-^3H]CMP-NeuAc, 0.15 mM [9-^3H] [2] or 0.15 mM [9-^3H] [4] was the donor, and [5] was the acceptor (FIG. 3). 2 mM 5′-CMP was added in runs with core-2 donors and [4], and thus reverse sialylation of these molecules was feasible. Keq for transfer of sialic acid from CMP-NeuAc to [5] was 5.55 (FIG. 3a). […] (˜6 mM) or [9-^3H[4]] (˜6 mM). Thus, while the two-step mechanism results in lower conversion than CMP-NeuAc alone, the transfer of NeuAc still takes place at an appreciable rate.

- Incorporation of [9-3H]NeuAc into the acceptor, ST6Gal-I activity (ST6Gal-I): 15066 CPM
- Incorporation of [9-3H]NeuAc into the acceptor, ST3Gal-III activity (ST3Gal-III): 59531 CPM
- Incorporation of [9-3H]NeuAc into the acceptor, ST3Gal-II activity (ST3Gal-II [1]): 134122 CPM
- amount of acceptor [5] required for comparable transfer (ST3Gal-II [2]): 0.6 mM
Compound: CC(=O)N[C@H]1[C@H]([C@H](O)[C@H](O)CO)O[C@](OP(=O)(O)OC[C@H]2O[C@@H](n3ccc(N)nc3=O)[C@H](O)[C@@H]2O)(C(=O)O)C[C@@H]1O [CMP-NeuAc, reference compound]

Source: patent US8278072B1, “Method for synthesis of sialylated products using reversible sialylation” (Health Research, Inc., priority 2007, dated 2012)
